Values after ≈ are worked out from the molar mass of the structure shown.
Legend:
[1] = system: Artemia salina; experiment: In vitro inhibitory activity required against Artemia salina; format: functional
[2] = system: Caenorhabditis elegans; experiment: In vitro inhibitory activity required against Caenorhabditis elegans.; format: functional

| Compound | MIC [2] | MIC [1] |
| --- | --- | --- |
| CCOC(=O)/C=C1/[C@H](C)O[C@@H](O[Si](C)(C)C(C)(C)C)C[C@@H]1OC | 0.01 mg/L (≈ 0.029 µM) | 0.01 mg/L (≈ 0.029 µM) |
| CO/N=C/C=C1\[C@H](C)O[C@@H](O[Si](C)(C)C(C)(C)C)C[C@@H]1OC | 0.01 mg/L (≈ 0.0303 µM) | 0.01 mg/L (≈ 0.0303 µM) |
| CC[C@H](C)[C@H]1O[C@]2(C=C[C@@H]1C)C[C@@H]1C[C@@H](C/C=C(\C)[C@@H](O[C@H]3C[C@H](OC)[C@@H](O[C@H]4C[C@H](OC)[C@@H](O)[C@H](C)O4)[C@H](C)O3)[C@@H](C)/C=C/C=C3\CO[C@@H]4[C@H](O)C(C)=C[C@@H](C(=O)O1)[C@]34O)O2 [ABAMECTIN COMPONENT B1A] | 0.002 mg/L (≈ 0.00229 µM) | 0.0005 mg/L (≈ 0.000573 µM) |
| CO[C@H]1C[C@H](O[Si](C)(C)C(C)(C)C)O[C@@H](C)/C1=C/C(=O)N1CCCCC1 | 0.01 mg/L (≈ 0.0261 µM) | 0.002 mg/L (≈ 0.00521 µM) |
| CO[C@H]1C[C@H](O[Si](C)(C)C(C)(C)C)O[C@@H](C)/C1=C\COC(=O)c1ccncc1 | 0.05 mg/L (≈ 0.123 µM) | 0.01 mg/L (≈ 0.0245 µM) |
| CO[C@H]1C[C@H](O[Si](C)(C)C(C)(C)C)O[C@@H](C)/C1=C/C(=O)O | 0.01 mg/L (≈ 0.0316 µM) | 0.002 mg/L (≈ 0.00632 µM) |
| CO[C@H]1C[C@H](O[Si](C)(C)C(C)(C)C)O[C@@H](C)/C1=C/CN1CCNCC1 | 0.01 mg/L (≈ 0.027 µM) | 0.002 mg/L (≈ 0.0054 µM) |
| CO[C@H]1C[C@H](O[Si](C)(C)C(C)(C)C)O[C@@H](C)/C1=C/CO | 0.01 mg/L (≈ 0.0331 µM) | 0.01 mg/L (≈ 0.0331 µM) |
| CO[C@H]1C[C@H](O[Si](C)(C)C(C)(C)C)O[C@@H](C)/C1=C\C=N\O | 0.01 mg/L (≈ 0.0317 µM) | 0.002 mg/L (≈ 0.00634 µM) |
| CO[C@H]1C[C@H](O[Si](C)(C)C(C)(C)C)O[C@@H](C)/C1=C/C#N | 0.0005 mg/L (≈ 0.00168 µM) | 0.0005 mg/L (≈ 0.00168 µM) |
| CO[C@H]1C[C@H](O[Si](C)(C)C(C)(C)C)O[C@@H](C)/C1=C/C(=O)N1CCOCC1 | 0.01 mg/L (≈ 0.0259 µM) | 0.01 mg/L (≈ 0.0259 µM) |
| CO[C@H]1C[C@H](O[Si](C)(C)C(C)(C)C)O[C@@H](C)/C1=C\C(=O)O | 0.01 mg/L (≈ 0.0316 µM) | 0.002 mg/L (≈ 0.00632 µM) |

Now from value to compound, other results behind:

| MIC [2] | Compound | MIC [1] |
| --- | --- | --- |
| 0.01 mg/L (≈ 0.0333 µM) | CO[C@H]1C[C@H](O[Si](C)(C)C(C)(C)C)O[C@@H](C)/C1=C/C=O | 0.01 mg/L (≈ 0.0333 µM) |
| 0.05 mg/L (≈ 0.135 µM) | CO[C@H]1C[C@H](O[Si](C)(C)C(C)(C)C)O[C@@H](C)/C1=C/CN1CCCCC1 | 0.01 mg/L (≈ 0.0271 µM) |
| 0.01 mg/L (≈ 0.0312 µM) | CO[C@H]1C[C@H](O[Si](C)(C)C(C)(C)C)O[C@@H](C)/C1=C/CCl | 0.01 mg/L (≈ 0.0312 µM) |
| 0.002 mg/L (≈ 0.00672 µM) | CO[C@H]1C[C@H](O[Si](C)(C)C(C)(C)C)O[C@@H](C)/C1=C\C#N | 0.002 mg/L (≈ 0.00672 µM) |
| 0.01 mg/L (≈ 0.0269 µM) | CO[C@H]1C[C@H](O[Si](C)(C)C(C)(C)C)O[C@@H](C)/C1=C/CN1CCOCC1 | 0.01 mg/L (≈ 0.0269 µM) |
| 0.01 mg/L (≈ 0.026 µM) | CO[C@H]1C[C@H](O[Si](C)(C)C(C)(C)C)O[C@@H](C)/C1=C/C(=O)N1CCNCC1 | 0.002 mg/L (≈ 0.0052 µM) |
| 0.002 mg/L | IVERMECTIN | 0.002 mg/L |
| 0.01 mg/L (≈ 0.0245 µM) | CO[C@H]1C[C@H](O[Si](C)(C)C(C)(C)C)O[C@@H](C)/C1=C\COC(=O)c1cccnc1 | 0.002 mg/L (≈ 0.00491 µM) |
| 0.01 mg/L (≈ 0.028 µM) | C=CCOC(=O)/C=C1/[C@H](C)O[C@@H](O[Si](C)(C)C(C)(C)C)C[C@@H]1OC | 0.002 mg/L (≈ 0.00561 µM) |
